In EPA's ToxRefDB 2:

What was measured:
rat [1] = conditions: Subchronic oral toxicity in rodents, wistar, Feed, dose end: 90 day, group: systemic
dog [2] = conditions: Subchronic oral toxicity in nonrodent, beagle, Feed, dose end: 90 day, group: systemic
rat [3] = conditions: Carcinogenicity, wistar, Oral, Feed, dose end: 104 week, group: systemic
rat [4] = conditions: Chronic toxicity, wistar, Oral, Feed, dose end: 104 week, group: systemic
mouse [5] = conditions: Carcinogenicity, b6c3f1, Oral, [Not Specified], dose end: 78 week, group: systemic
rabbit [6] = conditions: Prenatal developmental toxicity study, himalayan, Oral, Gavage/Intubation, dose end: 19 GD
dog [7] = conditions: Chronic toxicity, beagle, Oral, Feed, dose end: 12 month, group: systemic
mouse [8] = conditions: Carcinogenicity, b6c3f1, Oral, Feed, dose end: 103 week, group: systemic
rat [9] = conditions: Carcinogenicity; fischer; Oral; Feed; dose end: 103 week; group: systemic; systemic / in life observation / clinical signs / drooping eyelids (ptosis) + systemic / pathology microscopic / adrenal gland / …
mouse [10] = conditions: Subchronic oral toxicity in rodents, b6c3f1, Feed, dose end: 13 week, group: systemic, systemic / in life observation / body weight / body weight
rat [11] = conditions: Other (NonGuideline or Guideline Not Listed), sprague dawley, Oral, Gavage/Intubation, dose end: 20 PND, group: cannot be grouped
rat [12] = conditions: Peri- and post-natal toxicity study (Segment III), sprague dawley, Oral, Gavage/Intubation, dose end: 54 PND
rat [13] = conditions: Multigenerational reproductive toxicity study, sprague dawley, Oral, Feed, dose end: 2 generation
rat [14] = conditions: Combined chronic toxicity/carcinogenicity, other, Oral, Feed, dose end: 24 month, group: systemic
rabbit [15] = conditions: Prenatal developmental toxicity study, new zealand white, Oral, Capsule, dose end: 18 GD
mouse [16] = conditions: Carcinogenicity; other; Oral; Feed; dose end: 18 month; group: systemic; systemic / in life observation / body weight / body weight
rabbit [17] = conditions: Prenatal developmental toxicity study, new zealand white, Oral, Capsule, dose end: 18 GD; remark: listed apart in the source
mouse [18] = conditions: Carcinogenicity; other; Oral; Feed; dose end: 18 month; group: systemic; systemic / in life observation / body weight / body weight; remark: listed apart in the source
rabbit [19] = conditions: Prenatal developmental toxicity study; chinchilla; Oral; Gavage/Intubation; dose end: 18 GD; group: maternal; reproductive / reproductive performance / postimplantation loss / postimplantation loss + systemic / in life observation / body weight / …
dog [20] = conditions: Chronic toxicity, beagle, Oral, Feed, dose end: 12 month
rat [21] = conditions: Combined chronic toxicity/carcinogenicity, other, Oral, Feed, dose end: 106 week
mouse [22] = conditions: Carcinogenicity, b6c3f1, Oral, Feed, dose end: 24 month, group: systemic
dog [23] = conditions: Chronic toxicity; beagle; Oral; Feed; dose end: 26 week; group: systemic; systemic / in life observation / body weight / body weight + systemic / clinical chemistry / [other] / [other] + systemic / clinical …
[24] = systemic / clinical chemistry / albumin / albumin + systemic / clinical chemistry / protein / protein
[25] = systemic / organ weight / liver / absolute + systemic / organ weight / liver / relative to body weight + systemic / pathology microscopic / …
[26] = systemic / organ weight / liver / relative to body weight + systemic / pathology microscopic / spleen / hemosiderosis + systemic / …
[27] = systemic / pathology gross / lymph node / enlarged + systemic / pathology gross / spleen / enlarged + systemic / pathology microscopic / …
[28] = systemic / clinical chemistry / cholesterol / cholesterol
[29] = systemic / clinical chemistry / cholesterol / cholesterol + systemic / in life observation / body weight / body weight + systemic / in life …
[30] = systemic / organ weight / kidney / absolute
[31] = group: developmental, developmental / developmental malformation / bone / full supernumerary + developmental / developmental malformation / bone / fused + …
[32] = group: maternal, systemic / in life observation / body weight / body weight gain + systemic / in life observation / food consumption / food efficiency + …
[33] = systemic / organ weight / liver / relative to body weight + systemic / pathology microscopic / liver / hemosiderosis + systemic / clinical …
[34] = systemic / in life observation / body weight / body weight
[35] = systemic / in life observation / body weight / body weight + systemic / pathology microscopic / mammary gland / mixed tumor malignant + …
[36] = developmental / developmental landmark / preputial separation / preputial separation
[37] = developmental / developmental malformation / general / [other] + developmental / developmental malformation / penis / [other] + …
[38] = group: developmental, developmental / developmental landmark / preputial separation / preputial separation
[39] = group: parental, systemic / organ weight / [other] / absolute + systemic / organ weight / adrenal gland / absolute + systemic / organ weight / epididymis / …
[40] = group: offspring, systemic / in life observation / body weight / offspring (pup) weight + systemic / in life observation / body weight / offspring (pup) …
[41] = group: parental, systemic / in life observation / body weight / body weight + systemic / in life observation / body weight / body weight gain + systemic / in…
[42] = group: parental, systemic / in life observation / body weight / body weight gain
[43] = systemic / organ weight / kidney / absolute + systemic / organ weight / kidney / relative to body weight
[44] = group: developmental, systemic / in life observation / body weight / fetal weight
[45] = group: maternal, systemic / in life observation / clinical signs / anorexia + systemic / in life observation / clinical signs / no feces + systemic / in life…
[46] = group: maternal, systemic / in life observation / clinical signs / anorexia + systemic / pathology gross / stomach / fluid contents + systemic / pathology …
[47] = group: cholinesterase, cholinesterase / cholinesterase / cholinesterase / erythrocyte cholinesterase (che) + cholinesterase / cholinesterase / cholinesterase / …
[48] = group: systemic, systemic / clinical chemistry / cholesterol / cholesterol
[49] = group: systemic, systemic / clinical chemistry / cholesterol / cholesterol + systemic / in life observation / clinical signs / vomitting
[50] = group: cholinesterase, cholinesterase / cholinesterase / cholinesterase / plasma cholinesterase (che) + cholinesterase / cholinesterase / cholinesterase / …
[51] = group: systemic, systemic / in life observation / body weight / body weight + systemic / in life observation / food consumption / food consumption
[52] = group: systemic, systemic / in life observation / body weight / body weight + systemic / in life observation / food consumption / food consumption + systemic…
[53] = systemic / clinical chemistry / alanine aminotransferase (alt/sgpt) / alanine aminotransferase (alt/sgpt) + systemic / organ weight / liver…
[54] = systemic / clinical chemistry / protein / protein

## CN1CSC(=S)N(C)C1 [Dazomet]
Rat [1]; [24]
  LEL: 1.7 mg/kg/day
  NEL: < 1.7 mg/kg/day
Rat [1]; [25]
  LOAEL: 4.5 mg/kg/day
  NOAEL: 1.5 mg/kg/day
Dog [2]; systemic / organ weight / liver / relative to body weight + systemic / pathology microscopic / spleen / hemosiderosis
  LOAEL: 7.25 mg/kg/day
Dog [2]; [26]
  LEL: 7.25 mg/kg/day
  NEL: 3.5 mg/kg/day
  NOAEL: 3.5 mg/kg/day
Rat [3]; systemic / pathology gross / lymph node / enlarged + systemic / pathology gross / spleen / enlarged
  LEL: 0.9 mg/kg/day
Rat [3]; [27]
  LOAEL: > 3.71 mg/kg/day
  NEL: 0.2 mg/kg/day
  NOAEL: ≥ 3.71 mg/kg/day
Rat [4]; [28]
  LEL: 3.81 mg/kg/day
  LOAEL: 3.81 mg/kg/day
Rat [4]; [29]
  NEL: 0.94 mg/kg/day
  NOAEL: 0.94 mg/kg/day
Mouse [5]; [30]
  LEL: 3.9 mg/kg/day
  NEL: < 3.9 mg/kg/day
Mouse [5]; systemic / pathology microscopic / liver / adenoma
  LOAEL: 15.6 mg/kg/day
Mouse [5]; systemic / pathology microscopic / liver / adenoma + systemic / in life observation / body weight / body weight + systemic / in life …
  NOAEL: 3.9 mg/kg/day
Rabbit [6]; [31]
  LEL: 45 mg/kg/day
  LOAEL: 45 mg/kg/day
  NEL: 15 mg/kg/day
  NOAEL: 15 mg/kg/day
Rabbit [6]; group: maternal, systemic / in life observation / body weight / body weight gain + systemic / in life observation / food consumption / food efficiency
  LOAEL: 45 mg/kg/day
Rabbit [6]; [32]
  LEL: 45 mg/kg/day
  NEL: 15 mg/kg/day
  NOAEL: 15 mg/kg/day
Dog [7]; systemic / organ weight / liver / relative to body weight + systemic / pathology microscopic / liver / hemosiderosis
  LOAEL: 1.12 mg/kg/day
Dog [7]; [33]
  LEL: 1.12 mg/kg/day
  NEL: 0.35 mg/kg/day
  NOAEL: 0.35 mg/kg/day

## COC(=O)[C@H]1[C@H]2C[C@@H]3c4[nH]c5cc(OC)ccc5c4CCN3C[C@H]2C[C@@H](OC(=O)c2cc(OC)c(OC)c(OC)c2)[C@@H]1OC [Reserpine]
Mouse [8]; [34]
  LOAEL: 0.75 mg/kg/day
  NOAEL: < 0.75 mg/kg/day
Mouse [8]; [35]
  LEL: 0.75 mg/kg/day
  NEL: < 0.75 mg/kg/day
Rat [9]
  LEL: 0.25 mg/kg/day
  LOAEL: > 0.5 mg/kg/day
  NEL: < 0.25 mg/kg/day
  NOAEL: ≥ 0.5 mg/kg/day
Mouse [10]
  LEL: 0.06 mg/kg/day
  LOAEL: 0.225 mg/kg/day
  NEL: < 0.06 mg/kg/day
  NOAEL: 0.12 mg/kg/day

## CC(C)C(=O)Nc1ccc([N+](=O)[O-])c(C(F)(F)F)c1 [Flutamide]
Rat [11]; [36]
  LEL: 0.4 mg/kg/day
  NEL: < 0.4 mg/kg/day
Rat [11]; [37]
  LOAEL: > 10 mg/kg/day
  NOAEL: ≥ 10 mg/kg/day
Rat [12]; [38]
  LEL: 25 mg/kg/day
  LOAEL: > 50 mg/kg/day
  NEL: < 25 mg/kg/day
  NOAEL: ≥ 50 mg/kg/day
Rat [12]; [39]
  LEL: 25 mg/kg/day
  LOAEL: > 50 mg/kg/day
  NEL: < 25 mg/kg/day
  NOAEL: ≥ 50 mg/kg/day

## CC(C)([CH2][Sn]([CH2]C(C)(C)c1ccccc1)([CH2]C(C)(C)c1ccccc1)[O][Sn]([CH2]C(C)(C)c1ccccc1)([CH2]C(C)(C)c1ccccc1)[CH2]C(C)(C)c1ccccc1)c1ccccc1 [Fenbutatin oxide]
Rat [13]; group: offspring, systemic / in life observation / body weight / offspring (pup) weight
  LEL: 5.92 mg/kg/day
Rat [13]; [40]
  LOAEL: 17.4 mg/kg/day
  NEL: 3.18 mg/kg/day
  NOAEL: 5.2 mg/kg/day
Rat [13]; [41]
  LOAEL: 30 mg/kg/day
  NOAEL: 14.8 mg/kg/day
Rat [13]; [42]
  LEL: 2.39 mg/kg/day
  NEL: < 2.39 mg/kg/day
Rat [14]; systemic / clinical chemistry / alkaline phosphatase (alp/alk) / alkaline phosphatase (alp/alk)
  LOAEL: 15 mg/kg/day
Rat [14]; systemic / clinical chemistry / alkaline phosphatase (alp/alk) / alkaline phosphatase (alp/alk) + systemic / clinical chemistry / urea …
  NOAEL: 5 mg/kg/day
Rat [14]; [43]
  LEL: 2.5 mg/kg/day
  NEL: < 2.5 mg/kg/day
Rabbit [15]; [44]
  LEL: 10 mg/kg/day
  LOAEL: 10 mg/kg/day
  NEL: 5 mg/kg/day
  NOAEL: 5 mg/kg/day
Rabbit [15]; [45]
  LEL: 5 mg/kg/day
  LOAEL: 5 mg/kg/day
  NEL: 1 mg/kg/day
  NOAEL: 1 mg/kg/day
Mouse [16]
  LEL: 45 mg/kg/day
  LOAEL: 45 mg/kg/day
  NEL: 15 mg/kg/day
  NOAEL: 15 mg/kg/day
Rabbit [17]; [44]
  LEL: 10 mg/kg/day
  LOAEL: 10 mg/kg/day
  NEL: 5 mg/kg/day
  NOAEL: 5 mg/kg/day
Rabbit [17]; [46]
  LEL: 5 mg/kg/day
  LOAEL: 5 mg/kg/day
  NEL: 1 mg/kg/day
  NOAEL: 1 mg/kg/day
Mouse [18]
  LEL: 45 mg/kg/day
  LOAEL: 45 mg/kg/day
  NEL: 15 mg/kg/day
  NOAEL: 15 mg/kg/day

## CNC(=O)Oc1ccccc1OC(C)C [Propoxur]
Rabbit [19]
  LEL: 30 mg/kg/day
  LOAEL: 30 mg/kg/day
  NEL: 10 mg/kg/day
  NOAEL: 10 mg/kg/day
Dog [20]; [47]
  LEL: 781 mg/kg/day
  LOAEL: > 781 mg/kg/day
  NEL: 186 mg/kg/day
  NOAEL: ≥ 781 mg/kg/day
Dog [20]; [48]
  LOAEL: 62.4 mg/kg/day
  NOAEL: < 62.4 mg/kg/day
Dog [20]; [49]
  LEL: 62.4 mg/kg/day
  NEL: < 62.4 mg/kg/day
Rat [21]; group: cholinesterase, cholinesterase / cholinesterase / cholinesterase / plasma cholinesterase (che)
  NEL: 50 mg/kg/day
Rat [21]; [50]
  LEL: 250 mg/kg/day
  LOAEL: > 250 mg/kg/day
  NOAEL: ≥ 250 mg/kg/day
Rat [21]; [51]
  LEL: 10 mg/kg/day
  NEL: < 10 mg/kg/day
Rat [21]; [52]
  LOAEL: 250 mg/kg/day
  NOAEL: 50 mg/kg/day
Mouse [22]; [53]
  LOAEL: 472 mg/kg/day
  NOAEL: 114 mg/kg/day
Mouse [22]; [54]
  LEL: 150 mg/kg/day
  NEL: < 150 mg/kg/day
Dog [23]
  LEL: 1.75 mg/kg/day
  LOAEL: > 1.75 mg/kg/day
  NEL: < 1.75 mg/kg/day
  NOAEL: ≥ 1.75 mg/kg/day
